From patent US4514413A, “Gastric acid secretion inhibiting N-(imidazol-1-ylalkyl)thiourea derivatives” (BASF Aktiengesellschaft, priority 1982, dated 1985)

Key:
histamine H2 receptor = biological target: T1, histamine H2 receptor (Rattus norvegicus, UniProt P25102); test: Inhibition of the dimaprit-induced lowering of the blood pressure (histamine H2 receptor-blocking action); assay type: in vivo, male Sprague-Dawley rats; conditions: for R.A. (relative activity), inhibition of the dimaprit-induced lowering of the blood pressure / inhibition of dimaprit-induced lowering of the blood pressure (in words): rat
T1 construct: In male Sprague-Dawley rats (weight 210-310 g) which have been anesthetized with urethane; from tissue; host or cells: whole animal in vivo: anesthetized male Sprague-Dawley rats
T1 sequence (P25102 whole entry): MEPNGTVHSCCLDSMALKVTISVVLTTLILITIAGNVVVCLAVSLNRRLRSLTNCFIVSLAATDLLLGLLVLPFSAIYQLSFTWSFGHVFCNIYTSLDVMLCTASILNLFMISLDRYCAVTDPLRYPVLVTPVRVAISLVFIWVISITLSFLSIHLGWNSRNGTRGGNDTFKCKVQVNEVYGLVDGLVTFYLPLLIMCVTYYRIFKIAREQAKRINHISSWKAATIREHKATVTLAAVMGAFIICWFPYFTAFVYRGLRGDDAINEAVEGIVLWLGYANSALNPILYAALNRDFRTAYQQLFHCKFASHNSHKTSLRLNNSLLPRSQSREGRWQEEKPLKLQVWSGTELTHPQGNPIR
Description: The substances tested were administered intravenously 5 minutes before the dimaprit injection. The ED 50% is determined as the dose which inhibits the dimaprit-induced lowering of the blood pressure by 50% (Table 1).

[1] = test system: secretion of gastric acid; test: Inhibition of the gastric secretion in the rat (pH at the surface of the gastric mucous membrane); assay type: in vivo, female Sprague-Dawley rats; conditions: for R.A. (relative activity), inhibition of the gastric secretion: cimetidine = 1.00, subcutaneous administration; for ED 0.75 (dose which increases the pH by 0.75 on average compared with untreated control animals): subcutaneous administration, 1 hour pretreatment, 48 h fasted
Description: Inhibition of the secretion of gastric acid results in an increase in the pH of the gastric mucus membrane. This is investigated on groups of 5 conscious female Sprague-Dawley rats weighing 160-180 g. The animals receive no food for 48 hours (water ad libitum), and are pretreated subcutaneously with various doses of the test substances. […] The dose which increases the pH by 0.75 on average compared with untreated control animals is determined, as the ED 0.75, from the linear regression between the logarithms of the applied doses and the increase in the pH (Table 2).

[2] = cimetidine = 1.00, urethane anesthesia, intravenous administration
[3] = urethane anesthesia, intravenous administration

SMILES: CN/C(=N/CCSCc1nc[nH]c1C)NC#N [Cimetidine, reference compound]
- R.A. (relative activity), inhibition of the dimaprit-induced lowering of the blood pressure (histamine H2 receptor; [2]): 1.00
- inhibition of dimaprit-induced lowering of the blood pressure (in words) (histamine H2 receptor; [3]): specific and dose-dependent inhibition
- R.A. (relative activity), inhibition of the gastric secretion [1]: 1.00
- ED 0.75 (dose which increases the pH by 0.75 on average compared with untreated control animals) [1]: 0.45 mg/kg

SMILES: Cc1nccn1CCCNC(=S)NCCSCc1ccc(CN(C)C)o1.O=C(O)C(=O)O.O=C(O)C(=O)O [Example No. 1, N-[3-(2-methylimidazol-1-yl)-propyl]-N'-{2-[[5-(N,N-dimethylaminomethyl)-furan-2-yl]-methylthio]-ethyl}-thiourea dioxalate]
- R.A. (relative activity), inhibition of the dimaprit-induced lowering of the blood pressure (histamine H2 receptor; in vivo, iv): 23.91
- R.A. (relative activity), inhibition of the gastric secretion [1]: 8.65
- ED 0.75 (dose which increases the pH by 0.75 on average compared with untreated control animals) ([1]; in mg/kg): 0.052
- times more effective than cimetidine ([1]; vs cimetidine, inhibition of gastric acid secretion, subcutaneous): 8.7 times
- times more effective than ranitidine ([1]; vs ranitidine, inhibition of gastric acid secretion, subcutaneous): 1.7 times

SMILES: CC(C)c1nccn1CCCNC(=S)NCCSCc1ccc(CN(C)C)o1 [Example No. 2, N-[3-(2-isopropylimidazol-1-yl)-propyl]-N'-{2-[[5-(N,N-dimethylaminomethyl)-furan-2-yl]-methylthio]-ethyl}-thiourea]
- R.A. (relative activity), inhibition of the dimaprit-induced lowering of the blood pressure (histamine H2 receptor; [2]): 22.00

SMILES: CCc1nccn1CCCNC(=S)NCCSCc1ccc(CN(C)C)o1 [Example No. 3, N-[3-(2-ethylimidazol-1-yl)-propyl]-N'-{2-[[5-(N,N-dimethylaminomethyl)-furan-2-yl]-methylthio]-ethyl}-thiourea dioxalate]
- R.A. (relative activity), inhibition of the dimaprit-induced lowering of the blood pressure (histamine H2 receptor; [2]): 12.94

SMILES: CCCc1nccn1CCCNC(=S)NCCSCc1ccc(CN(C)C)o1 [Example No. 4]
- R.A. (relative activity), inhibition of the dimaprit-induced lowering of the blood pressure (histamine H2 receptor; [2]): 10.00

SMILES: Cc1nc(C)n(CCCNC(=S)NCCSCc2ccc(CN(C)C)o2)c1C [Example No. 8, N[3-(2,4,5-trimethylimidazol-1-yl)-propyl]-N'{2-[[5-(N,Ndimethylamino-methyl)-furan-2-yl]-methylthio]-ethyl}-thiourea]
- R.A. (relative activity), inhibition of the dimaprit-induced lowering of the blood pressure (histamine H2 receptor; [2]): 26.19

SMILES: CCc1ncc(C)n1CCCNC(=S)NCCSCc1ccc(CN(C)C)o1 [Example No. 9]
- R.A. (relative activity), inhibition of the dimaprit-induced lowering of the blood pressure (histamine H2 receptor; [2]): 10.00

SMILES: CNC(=C[N+](=O)[O-])NCCSCc1ccc(CN(C)C)o1 [Ranitidine, reference compound]
- R.A. (relative activity), inhibition of the dimaprit-induced lowering of the blood pressure (histamine H2 receptor; in vivo, iv): 10.48
- inhibition of dimaprit-induced lowering of the blood pressure (in words) (histamine H2 receptor; [3]): specific and dose-dependent inhibition
- R.A. (relative activity), inhibition of the gastric secretion [1]: 5.23
- ED 0.75 (dose which increases the pH by 0.75 on average compared with untreated control animals) ([1]; in mg/kg): 0.086

SMILES: CN(C)CCCSC(=N)N [dimaprit, S-[3-(N,N-dimethylamino)-propyl]-isothiourea, reference compound]
- average lowering of the blood pressure (histamine H2 receptor; dimaprit 3.16 mg intravenously, initial pressures 100±1.1 mm Hg, N=70): 27±0.7 mm Hg
